Several values for one entry are separate records, joined by “and”; a condition that tells them apart may be missing. Identical values can stand only once.
How the values were obtained:
[1] = HPLC analysis of test article vials and patch controls in air (mini-pig study); format: physicochemical
Description: Squaric acid dibutyl ester (SADBE) at 2% (w/v) concentration in dimethylsulfoxide (DMSO) was added to a skin patch for dermal dosing of SADBE to test for a delayed-type hypersensitivity response or other skin irritation. In the laboratories of Squarex HPLC analysis was conducted to analyze for SADBE content, for analysis of the dose formulation prepared by APS and to determine stability of the test article in the dermal patches during the application time and to test for residual SADBE in the dermal patches after 12 hours applied to the animals.
The skin patches consisted of a polymer backing layer similar to 3M 9916 polyester nonwoven backing layer with adhesive, 3M 9733 polyester film laminate barrier layer, and Precision Fabrics Group 0700-00010 polyester gauze layer. The gauze was heat sealed to the barrier layer. The gauze patch area was 1.53 cm^2.
(§1) The tubes of DMSO with patches were transported to the Squarex laboratory, shaken at 200 rpm for 30 minutes to overnight, and then the DMSO from each tube was placed in an injection vial and analyzed for SADBE content by HPLC on a C18 column with the program SADBE3-50 ul. SADBE elutes in this program at about 24.0 minutes and absorbs at 255 nm, so the area of the 24.0 min peak at 255 nm was used to quantify SADBE. The SADBE degradation product squaric acid monobutyl ester (SAMBE) was also quantified by 255 nm area under the curve at the elution time of 12.7 minutes.
The test article vials of 2%, 6%, and 18% SADBE dissolved in DMSO complied with specifications and had the predicted concentrations of SADBE at 24 hours after preparation.
The results indicated the SADBE was stable for more than 12 hours in the patches when not exposed to animal skin. There was no apparent loss of SADBE or conversion of SADBE to SAMBE.

[2] = test system: pig skin; assay: Skin irritation (erythema, edema) after SADBE dermal patches in swine; format: in vivo; conditions: for Average high erythema score: across all patches, doses and exposure times
Text: An additional purpose was to assess immediate and delayed skin irritation, including erythema and edema on the pig skin over 4 weeks after dosing. Skin irritation was scored as in Table 5. [table] It was scored 3 times per week at each patch application site for four weeks. The scores shown are the erythema score at the time of patch removal, and then the highest of the 3 scores taken each week for each patch site.

[3] = test system: guinea pig skin; assay: Cutaneous irritation (Draize, Primary Irritation Index) after SADBE dermal patch in guinea pig; format: in vivo; conditions: for time to return to non-irritating levels post-dermal-application / time of peak cutaneous irritation: re-challenge
Description: Thirty (30) guinea pigs (15 female and 15 male) were utilized for this nonGLP study. Prior to and post dosing (dermal patches loaded with 20 microliters of 2, 6, or 18% SADBE drug solution) body weights, group food consumption, and Draize scoring for erythema, eschar formation, and edema at the dose site were be recorded. The dermal patch loaded with SADBE was applied to animals, and left in place for ˜12 hours plus/minus 1 hour. Following the ˜12 hour dosing period, patch sites was assessed by Draize scoring. […] After the 28 days assessment period, re challenge was performed, a second patch (not treated during the induction phase) was applied and assessed by Draize scoring.
Cutaneous irritation at the test site was observed and scored each day of the study by the Draize Scale for both Erythema & Eschar and Edema. The scale for each is in Tables 9 and 10, each on a 0-4 scale. The cumulative Erythema & Eschar and Edema score was the Primary Irritation Index score, which would therefore be on a 0-8 scale.
To assess the effect of the test article, SADBE (2%, 6%, and 18% in DMSO), on cutaneous skin irritation potential and sensitivity in guinea pig, Draize scoring system was used for dose site evaluation for erythema and eschar responses and for Edema. The test article (20 ul) was loaded on a dermal patch and applied to shaved guinea pig skin for 12 hrs (induction phase). The first dose site evaluation was performed for 30 days post application. A second dose was applied and dose site evaluation was also performed for approximately 5 weeks (challenge phase).
The Primary Irritation Index (pII) for each test article dose was calculated to assess the irritation potential. The Primary Irritation Index (pII) is the mean of the primary irritation score. The primary irritation score is the sum of the erythema/eschar score and the edema score, resulting in a maximal irritation potential of 8. The daily primary irritation index (pII) for each test article dose over the course of the study was calculated (FIG. 4). The pII is used to categorize the test article treatments as negligible to not irritating (0-0.9), slight (0.9-1.9), moderate (2-4.9) or severe (5-8) irritation potential. […] (FIG. 4.)

[4] = Residual SADBE and SAMBE in patches after 12 hours on mini-pigs; format: in vivo, Gottingen miniswine; conditions: for SADBE as % of expected (remaining in patch): 12 hours on mini-pigs
Description: as §1, with “Patches were removed from the pigs at the indicated times and immediately the reservoir portion of the patch was cut out and placed in a 50 ml tube with 10 ml of DMSO. The tubes” for “The tubes”

[5] = 2% patch control, 20 ul, >12 hours in air
[6] = 2% vial, SADBE in DMSO, 24 hours after preparation
[7] = 6% patch control, 20 ul, >12 hours in air
[8] = 6% vial, SADBE in DMSO, 24 hours after preparation
[9] = 18% vial, SADBE in DMSO, 24 hours after preparation

**Q.** For `CCCCOc1c(OCCCC)c(=O)c1=O` [SADBE, squaric acid dibutyl ester], which “% of expected SADBE” value [1, 5] is on record?
**A.** 97.7%

**Q.** What about the “SAMBE as percent of SADBE” value [1, 5] of the same compound?
**A.** 0.86%

**Q.** What about the “% of expected SADBE” value [1, 6] of the same compound?
**A.** 100.8%

**Q.** What about the “SAMBE as percent of SADBE” value [1, 6] of the same compound?
**A.** 0.88%

**Q.** What about the “% of expected SADBE” value [1, 7] of the same compound?
**A.** 96.8%

**Q.** What about the “SAMBE as percent of SADBE” value [1, 7] of the same compound?
**A.** 0.96%

**Q.** What about the “% of expected SADBE” value [1, 8] of the same compound?
**A.** 97.5%

**Q.** And the “SAMBE as percent of SADBE” value [1, 8]?
**A.** 0.96%

**Q.** And the “% of expected SADBE” value [1, 9]?
**A.** 104.4%

**Q.** And the “SAMBE as percent of SADBE” value [1, 9]?
**A.** 1.00%

**Q.** And the “time SADBE was stable in the patches” value ([1]; patches not exposed to animal skin, no apparent loss or conversion to SAMBE)?
**A.** more than 12 hours

**Q.** And the “Average erythema score weeks 0-3” value ([2]; 20 ul of 2% SADBE, 1 hour exposure)?
**A.** 0

**Q.** And the “Average erythema score weeks 0-3” value ([2]; 20 ul of 2% SADBE, 3 hours exposure)?
**A.** 0.83

**Q.** What about the “Average erythema score weeks 0-3” value ([2]; 20 ul of 2% SADBE, 6 hours exposure) of the same compound?
**A.** 0.92

**Q.** What about the “Average erythema score weeks 0-3” value ([2]; 20 ul of 2% SADBE, 24 hours exposure) of the same compound?
**A.** 1.5

**Q.** And the “Average erythema score weeks 0-3” value ([2]; 50 ul of 2% SADBE, 1 hour exposure)?
**A.** 1.5

**Q.** And the “Average erythema score weeks 0-3” value ([2]; 50 ul of 2% SADBE, 3 hours exposure)?
**A.** 2.125

**Q.** And the “Average erythema score weeks 0-3” value ([2]; 50 ul of 2% SADBE, 6 hours exposure)?
**A.** 1.92

**Q.** And the “Average erythema score weeks 0-3” value ([2]; 50 ul of 2% SADBE, 24 hours exposure)?
**A.** 2.5

**Q.** What about the “Average erythema score weeks 0-3” value ([2]; 80 ul of 2% SADBE, 1 hour exposure) of the same compound?
**A.** 1.375

**Q.** What about the “Average erythema score weeks 0-3” value ([2]; 80 ul of 2% SADBE, 3 hours exposure) of the same compound?
**A.** 1.625

**Q.** And the “Average erythema score weeks 0-3” value ([2]; 80 ul of 2% SADBE, 6 hours exposure)?
**A.** 1.25

**Q.** What about the “Average erythema score weeks 0-3” value ([2]; 80 ul of 2% SADBE, 24 hours exposure) of the same compound?
**A.** 2.25

**Q.** What about the “Average high erythema score” value ([2]; Week 1) of the same compound?
**A.** 1.05

**Q.** And the “Average high erythema score” value ([2]; Week 2)?
**A.** 2.60

**Q.** What about the “Average high erythema score” value ([2]; Week 3) of the same compound?
**A.** 1.73

**Q.** And the “Average high erythema score” value ([2]; Week 4)?
**A.** 0.00

**Q.** What about the “edema at drug application site” value ([2]; any site, any time after patch application and removal) of the same compound?
**A.** No pigs had edema

**Q.** What about the “Average high erythema score” value ([2]; at patch removal) of the same compound?
**A.** 0.63

**Q.** And the “irritation category by Primary Irritation Index (pII)” value ([3]; 2% SADBE, 20 ul patch, 12 h, first dose)?
**A.** slightly irritating

**Q.** What about the “duration of slight cutaneous irritation” value ([3]; 2% SADBE, induction) of the same compound?
**A.** > 17 days

**Q.** What about the “time to return to non-irritating levels post-dermal-application” value ([3]; 2% SADBE) of the same compound?
**A.** ~9 days

**Q.** And the “irritation category by Primary Irritation Index (pII)” value ([3]; 2% SADBE, re-challenge (second dose))?
**A.** moderately irritating

**Q.** What about the “duration of slight to moderate cutaneous irritation” value ([3]; 2% SADBE, re-challenge at naive site) of the same compound?
**A.** ~5 days

**Q.** And the “irritation category by Primary Irritation Index (pII)” value ([3]; 6% SADBE, 20 ul patch, 12 h, first dose)?
**A.** moderately irritating

**Q.** What about the “duration of moderate cutaneous irritation” value ([3]; 6% SADBE, induction) of the same compound?
**A.** ~18 days

**Q.** And the “time to return to slight irritation and not irritating levels” value ([3]; 6% SADBE, induction)?
**A.** ~23 days

**Q.** And the “time of peak cutaneous irritation” value ([3]; 6% SADBE)?
**A.** ~5 days

**Q.** What about the “time to return to non-irritating levels post-dermal-application” value ([3]; 6% SADBE) of the same compound?
**A.** ~14 days

**Q.** And the “irritation category by Primary Irritation Index (pII)” value ([3]; 6% SADBE, re-challenge (second dose))?
**A.** moderately irritating

**Q.** And the “irritation category by Primary Irritation Index (pII)” value ([3]; 18% SADBE, 20 ul patch, 12 h, first dose)?
**A.** severely irritating

**Q.** And the “duration of moderate to severe cutaneous irritation” value ([3]; 18% SADBE, induction)?
**A.** ~21 days

**Q.** And the “time to return to slight irritation and not irritating levels post-dosing” value ([3]; 18% SADBE, induction)?
**A.** ~27 days

**Q.** And the “time of peak cutaneous irritation” value ([3]; 18% SADBE)?
**A.** ~8 days

**Q.** What about the “time to return to non-irritating levels post-dermal-application” value ([3]; 18% SADBE) of the same compound?
**A.** ~19 days

**Q.** And the “irritation category by Primary Irritation Index (pII)” value ([3]; 18% SADBE, re-challenge (second dose))?
**A.** moderately irritating

**Q.** What about the “SADBE apparently transferred into the mini pig skin” value ([4]; 2% patches, 12 hours) of the same compound?
**A.** about 89%

**Q.** What about the “SADBE as % of expected (remaining in patch)” value ([4]; 2% patches, individual animals) of the same compound?
**A.** 7.0% and 14.6%

**Q.** What about the “SADBE as % of expected (remaining in patch)” value ([4]; 6% patches, average of 2 animals) of the same compound?
**A.** 35% and 35.4%

**Q.** What about the “SADBE as % of expected (remaining in patch)” value ([4]; 6% patches, individual animals) of the same compound?
**A.** 29.9% and 40.8%

**Q.** And the “SADBE as % of expected (remaining in patch)” value ([4]; 18% patches, average of 2 animals)?
**A.** 65% and 65.5%

**Q.** What about the “SADBE as % of expected (remaining in patch)” value ([4]; 18% patches, individual animals) of the same compound?
**A.** 65.2% and 65.8%

Reference: US20210393932A1, “DERMAL PATCHES AND GLASS SWABS FOR APPLICATION OF TOPICAL IMMUNOSENSITIZERS” (Squarex, LLC, priority 2020, published 2021)
